For orientation: IC50 means the concentration that inhibits the measured activity by half.

The target in test [1] is T1, Phosphatidylinositol 4,5-bisphosphate 3-kinase catalytic subunit alpha isoform (Homo sapiens, UniProt P42336). The test can be described thus: Inhibition of PI3Kalpha (unknown origin).
In test [2] the target is Phosphatidylinositol 4,5-bisphosphate 3-kinase catalytic subunit gamma isoform (Homo sapiens, UniProt P48736). The test can be described thus: Inhibition of PI3Kgamma (unknown origin) by TR-FRET assay. (In TR-FRET formats the signal depends on donor and acceptor labels being close together.)
Test [3] addresses T2, Phosphatidylinositol 4,5-bisphosphate 3-kinase catalytic subunit delta isoform (Homo sapiens, UniProt O00329).
T2 sequence (O00329 whole entry): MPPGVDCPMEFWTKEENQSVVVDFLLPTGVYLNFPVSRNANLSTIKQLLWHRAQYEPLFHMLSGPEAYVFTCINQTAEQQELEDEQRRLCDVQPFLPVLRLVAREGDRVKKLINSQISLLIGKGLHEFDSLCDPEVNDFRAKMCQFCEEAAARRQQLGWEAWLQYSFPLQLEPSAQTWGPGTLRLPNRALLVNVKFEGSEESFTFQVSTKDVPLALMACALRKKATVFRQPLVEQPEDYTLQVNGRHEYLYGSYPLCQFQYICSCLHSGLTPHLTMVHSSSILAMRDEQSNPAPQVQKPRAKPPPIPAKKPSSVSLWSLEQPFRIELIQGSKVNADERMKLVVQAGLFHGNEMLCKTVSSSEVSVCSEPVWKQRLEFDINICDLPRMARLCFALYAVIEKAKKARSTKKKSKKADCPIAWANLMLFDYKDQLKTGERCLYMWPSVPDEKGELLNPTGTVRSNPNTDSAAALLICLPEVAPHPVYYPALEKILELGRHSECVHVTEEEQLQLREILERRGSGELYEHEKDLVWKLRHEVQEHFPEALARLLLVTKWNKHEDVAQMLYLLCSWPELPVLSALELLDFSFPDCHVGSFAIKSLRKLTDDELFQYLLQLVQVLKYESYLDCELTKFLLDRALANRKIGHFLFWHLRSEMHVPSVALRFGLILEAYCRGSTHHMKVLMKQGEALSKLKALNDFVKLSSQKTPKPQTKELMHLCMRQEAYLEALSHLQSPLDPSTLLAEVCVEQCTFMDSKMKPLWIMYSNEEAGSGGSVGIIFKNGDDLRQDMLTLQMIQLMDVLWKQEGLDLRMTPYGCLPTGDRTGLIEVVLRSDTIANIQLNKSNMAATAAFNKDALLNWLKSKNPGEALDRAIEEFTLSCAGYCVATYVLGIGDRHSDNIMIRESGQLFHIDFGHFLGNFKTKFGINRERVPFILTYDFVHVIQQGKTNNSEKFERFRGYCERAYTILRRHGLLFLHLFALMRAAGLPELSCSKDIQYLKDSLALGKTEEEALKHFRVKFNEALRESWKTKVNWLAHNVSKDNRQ
The test can be described thus: Inhibition of PI3Kdelta (unknown origin) by TR-FRET assay.

For test [4], the target named is T1, Phosphatidylinositol 4,5-bisphosphate 3-kinase catalytic subunit alpha isoform. Put plainly: Inhibition of PI3Kalpha (unknown origin) by TR-FRET assay.
Test [5] has as its target Phosphatidylinositol 4,5-bisphosphate 3-kinase catalytic subunit beta isoform (Homo sapiens, UniProt P42338). The test can be described thus: Inhibition of PI3Kbeta (unknown origin) by TR-FRET assay.

T1 sequence (P42336 whole entry, canonical isoform): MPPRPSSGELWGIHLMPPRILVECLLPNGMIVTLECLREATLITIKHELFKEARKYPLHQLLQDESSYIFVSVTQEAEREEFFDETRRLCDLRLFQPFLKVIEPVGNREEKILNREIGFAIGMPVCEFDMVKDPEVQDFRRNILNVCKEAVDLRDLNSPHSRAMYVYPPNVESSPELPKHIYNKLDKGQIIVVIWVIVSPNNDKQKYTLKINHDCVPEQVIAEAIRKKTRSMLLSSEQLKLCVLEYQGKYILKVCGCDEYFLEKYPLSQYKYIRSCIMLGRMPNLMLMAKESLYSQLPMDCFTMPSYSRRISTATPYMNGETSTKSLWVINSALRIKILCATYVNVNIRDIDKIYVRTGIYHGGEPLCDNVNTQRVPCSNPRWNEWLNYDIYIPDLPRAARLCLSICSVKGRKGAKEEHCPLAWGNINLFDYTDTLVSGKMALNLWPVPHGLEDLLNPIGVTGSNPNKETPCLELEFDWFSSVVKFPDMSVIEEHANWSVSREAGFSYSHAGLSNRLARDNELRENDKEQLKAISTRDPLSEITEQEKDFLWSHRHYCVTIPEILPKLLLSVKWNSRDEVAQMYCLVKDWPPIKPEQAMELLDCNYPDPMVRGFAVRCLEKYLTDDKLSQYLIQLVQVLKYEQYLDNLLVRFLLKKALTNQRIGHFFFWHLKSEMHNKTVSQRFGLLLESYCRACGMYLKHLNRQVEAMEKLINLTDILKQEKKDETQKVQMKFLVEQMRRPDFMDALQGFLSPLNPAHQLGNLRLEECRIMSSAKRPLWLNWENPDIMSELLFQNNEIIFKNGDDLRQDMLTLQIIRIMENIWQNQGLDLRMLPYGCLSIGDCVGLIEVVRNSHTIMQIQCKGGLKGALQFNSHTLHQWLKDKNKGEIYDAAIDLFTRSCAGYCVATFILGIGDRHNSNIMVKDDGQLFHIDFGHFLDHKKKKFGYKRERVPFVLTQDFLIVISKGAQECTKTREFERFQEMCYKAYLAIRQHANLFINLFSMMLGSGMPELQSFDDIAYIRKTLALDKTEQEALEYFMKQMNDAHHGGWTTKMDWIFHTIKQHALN
Chain of Phosphatidylinositol 4,5-bisphosphate 3-kinase catalytic subunit beta isoform (P42338 whole entry, canonical isoform): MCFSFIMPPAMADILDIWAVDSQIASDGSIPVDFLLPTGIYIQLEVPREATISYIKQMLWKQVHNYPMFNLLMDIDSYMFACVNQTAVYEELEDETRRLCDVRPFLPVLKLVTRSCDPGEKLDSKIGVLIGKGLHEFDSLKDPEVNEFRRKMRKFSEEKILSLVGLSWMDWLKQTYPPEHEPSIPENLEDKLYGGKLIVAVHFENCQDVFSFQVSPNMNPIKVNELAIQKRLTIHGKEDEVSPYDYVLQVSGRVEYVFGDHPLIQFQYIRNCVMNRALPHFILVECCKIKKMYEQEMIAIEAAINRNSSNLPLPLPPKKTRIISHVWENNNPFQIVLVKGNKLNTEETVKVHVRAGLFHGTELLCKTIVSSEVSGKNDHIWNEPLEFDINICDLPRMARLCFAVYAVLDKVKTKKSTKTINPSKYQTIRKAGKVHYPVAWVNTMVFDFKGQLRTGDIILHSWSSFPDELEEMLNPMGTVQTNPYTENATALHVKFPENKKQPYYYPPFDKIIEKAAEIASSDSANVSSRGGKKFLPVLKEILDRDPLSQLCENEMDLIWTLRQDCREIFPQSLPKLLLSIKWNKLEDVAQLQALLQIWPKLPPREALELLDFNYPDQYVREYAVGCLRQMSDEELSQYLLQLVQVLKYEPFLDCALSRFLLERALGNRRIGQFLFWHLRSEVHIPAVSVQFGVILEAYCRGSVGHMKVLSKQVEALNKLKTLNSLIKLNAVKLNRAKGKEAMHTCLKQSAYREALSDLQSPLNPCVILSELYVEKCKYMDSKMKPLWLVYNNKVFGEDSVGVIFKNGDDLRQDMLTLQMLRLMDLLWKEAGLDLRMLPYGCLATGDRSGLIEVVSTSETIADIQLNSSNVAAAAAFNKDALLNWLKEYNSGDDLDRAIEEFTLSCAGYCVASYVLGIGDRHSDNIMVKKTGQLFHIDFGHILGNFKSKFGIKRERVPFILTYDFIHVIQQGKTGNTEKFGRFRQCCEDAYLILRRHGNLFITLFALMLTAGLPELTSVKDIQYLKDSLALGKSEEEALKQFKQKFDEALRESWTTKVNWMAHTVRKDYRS
Chain of Phosphatidylinositol 4,5-bisphosphate 3-kinase catalytic subunit gamma isoform (P48736 whole entry, canonical isoform): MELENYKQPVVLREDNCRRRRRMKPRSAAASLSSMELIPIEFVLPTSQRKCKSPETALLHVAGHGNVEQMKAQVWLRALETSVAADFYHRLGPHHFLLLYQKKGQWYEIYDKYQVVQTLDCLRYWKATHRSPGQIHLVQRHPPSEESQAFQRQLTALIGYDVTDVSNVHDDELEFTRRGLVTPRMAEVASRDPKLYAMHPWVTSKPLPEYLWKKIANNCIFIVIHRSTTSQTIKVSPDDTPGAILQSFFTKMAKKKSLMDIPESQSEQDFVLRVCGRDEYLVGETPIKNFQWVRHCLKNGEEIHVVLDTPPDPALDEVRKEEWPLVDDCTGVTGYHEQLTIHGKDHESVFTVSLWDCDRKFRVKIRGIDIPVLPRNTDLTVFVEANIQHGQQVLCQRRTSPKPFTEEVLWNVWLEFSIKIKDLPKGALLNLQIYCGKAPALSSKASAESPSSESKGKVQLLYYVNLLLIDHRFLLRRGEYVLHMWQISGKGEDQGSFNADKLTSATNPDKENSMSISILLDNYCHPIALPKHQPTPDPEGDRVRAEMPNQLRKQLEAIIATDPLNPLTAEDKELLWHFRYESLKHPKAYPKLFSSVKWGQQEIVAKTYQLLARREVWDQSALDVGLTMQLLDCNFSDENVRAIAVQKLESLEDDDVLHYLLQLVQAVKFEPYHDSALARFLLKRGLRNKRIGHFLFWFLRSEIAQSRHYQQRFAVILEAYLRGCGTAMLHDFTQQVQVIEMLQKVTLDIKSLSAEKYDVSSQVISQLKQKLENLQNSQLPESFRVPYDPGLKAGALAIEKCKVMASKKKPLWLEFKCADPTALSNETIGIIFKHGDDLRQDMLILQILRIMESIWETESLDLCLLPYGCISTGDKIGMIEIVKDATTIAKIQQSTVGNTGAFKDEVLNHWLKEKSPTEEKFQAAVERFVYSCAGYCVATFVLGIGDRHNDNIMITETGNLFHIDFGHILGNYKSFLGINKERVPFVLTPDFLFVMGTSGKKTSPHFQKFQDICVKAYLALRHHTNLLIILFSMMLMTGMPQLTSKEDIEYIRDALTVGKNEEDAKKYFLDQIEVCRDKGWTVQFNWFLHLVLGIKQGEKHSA

Regarding `CC(C)(O)c1ccc(-c2cnc3c(n2)N(CC2CCOCC2)CC(=O)N3)cn1`, the IC50 in test [1] is above 30000 nM.

Regarding `NOCCOCCOCCOCCC(=O)N1CCN(c2cnc3ccc(-c4cnc(Cl)c(NS(=O)(=O)c5ccc(F)cc5)c4)cc3n2)CC1`, the IC50 was 1.33 nM in test [2], below 0.495 nM in test [3], below 4.95 nM in test [4] and 30.2 nM in test [5].

The values above are taken from ChEMBL document CHEMBL5214923, “Contemporary mTOR inhibitor scaffolds to diseases breakdown: A patent review (2015-2021)” (Eur J Med Chem, 2022).
